Test results taken from patent publication US9284333B2, “Fused pyrroledicarboxamides and their use as pharmaceuticals” (SANOFI, priority 2012, dated 2016).
pIC50: −log10 of the molar value.

Target: Human TASK-1 channels (Homo sapiens (Human), UniProt O14649)
Assay: Determination of the activity on the TASK-1 channel in Xenopus oocytes (two-microelectrode voltage clamp)
Assay type: cell-based
Conditions: compound concentration 5 μM
Outline: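 Xenopus oocytes were injected with human TASK-1 cRNA and recorded two days later by two-microelectrode voltage clamp, holding at −90 mV with 500 ms steps to 40 mV. Superfusion used ND96, pH 7.4, at room temperature, with rising compound concentrations; percentage inhibition of control current was fitted to a dose-response curve for IC50.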

Chain of Human TASK-1 channels (O14649 whole entry): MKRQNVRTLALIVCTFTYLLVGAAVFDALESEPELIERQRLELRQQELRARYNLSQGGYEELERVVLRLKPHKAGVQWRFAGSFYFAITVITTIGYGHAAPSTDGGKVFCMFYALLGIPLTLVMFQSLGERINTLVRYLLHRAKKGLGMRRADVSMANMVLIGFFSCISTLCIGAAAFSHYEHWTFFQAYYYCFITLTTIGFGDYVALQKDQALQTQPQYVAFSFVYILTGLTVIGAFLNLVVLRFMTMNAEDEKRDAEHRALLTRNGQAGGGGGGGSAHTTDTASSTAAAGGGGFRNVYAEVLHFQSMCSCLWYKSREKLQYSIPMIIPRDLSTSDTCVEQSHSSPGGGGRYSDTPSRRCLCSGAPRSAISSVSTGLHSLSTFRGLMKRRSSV

Compound | inhibition at 5 µM [%]
CC[C@@H](NC(=O)c1cc(C(=O)N2CC[C@@H](C#N)C2)n2c1COCC2)c1ccccc1 [16fy, 6-((R)-3-Cyano-pyrrolidine-1-carbonyl)-3,4-dihydro-1H-pyrrolo[2,1-c][1,4]oxazine-8-carboxylic acid ((R)-1-phenyl-propyl)-amide] | 59
CC[C@@H](NC(=O)c1cc(C(=O)N2CCC[C@@H]2C)n2c1COCC2)c1cnc(C(F)(F)F)nc1 [16bt, 6-((S)-2-Methyl-pyrrolidine-1-carbonyl)-3,4-dihydro-1H-pyrrolo[2,1-c][1,4]oxazine-8-carboxylic acid [(R)-1-(2-trifluoromethyl-pyrimidin-5-yl)-propyl]-amide] | 47
CC[C@H](NC(=O)c1cc(C(=O)N[C@H](C)c2ncccn2)c2n1CCOC2)c1ccccc1 [16kg, 3,4-Dihydro-1H-pyrrolo[2,1-c][1,4]oxazine-6,8-dicarboxylic acid 6-[((S)-1-phenyl-propyl)-amide] 8-[((R)-1-pyrimidin-2-yl-ethyl)-amide]] | 70
C[C@@H](NC(=O)c1cc(C(=O)NCC(F)(F)F)c2n1CCOC2)c1ccc(F)cc1 [16dr, 3,4-Dihydro-1H-pyrrolo[2,1-c][1,4]oxazine-6,8-dicarboxylic acid 6-{[(R)-1-(4-fluoro-phenyl)-ethyl]-amide} 8-[(2,2,2-trifluoro-ethyl)-amide]] | 84

Same assay, conditions: compound concentration 10 μM (footnote a)

Compound | inhibition at 10 µM [%]
CC[C@@H](NC(=O)c1cc(C(=O)N(C)[C@@H](C)C(=O)N(C)C)n2c1COCC2)c1ccccc1 [16rk, 3,4-dihydro-1H-pyrrolo[2,1-c][1,4]oxazine-6,8-dicarboxylic acid 6-[((S)-1-dimethylcarbamoyl-ethyl)methyl-amide] 8-[((R)-1-phenyl-propyl)-amide]] | 70

Same assay, conditions: human TASK-1 expressed in Xenopus oocytes, room temperature; read-out: IC50 value for TASK-1 inhibition

Compound | pIC50
O=C(NC(c1ccccc1)c1ccccc1)c1cc(C(=O)N2CCCC2)n2c1COCC2 [16di, 6-(Pyrrolidine-1-carbonyl)-3,4-dihydro-1H-pyrrolo[2,1-c][1,4]oxazine-8-carboxylic acid benzhydryl-amide] | 5.92
CC[C@@H](NC(=O)c1cc(C(=O)NCc2ccccc2)n2c1CCCC2)c1ccccc1 [16nf, 5,6,7,8-Tetrahydro-indolizine-1,3-dicarboxylic acid 3-benzylamide 1-[((R)-1-phenyl-propyl)-amide]] | 6.96
CC[C@@H](NC(=O)c1cc(C(=O)N[C@H](C)c2ccc(F)cc2)c2n1CCOC2)c1ncccn1 [16nv, 3,4-Dihydro-1H-pyrrolo[2,1-c][1,4]oxazine-6,8-dicarboxylic acid 8-{[(R)-1-(4-fluoro-phenyl)-ethyl]-amide} 6-[((R)-1-pyrimidin-2-yl-propyl)-amide]] | 6.77
CC[C@@H](NC(=O)c1cc(C(=O)N2CCCC2c2ncccn2)n2c1COCC2)c1ccccc1 (stereo partly drawn) [16fz, 6-(2-Pyrimidin-2-yl-pyrrolidine-1-carbonyl)-3,4-dihydro-1H-pyrrolo[2,1-c][1,4]oxazine-8-carboxylic acid ((R)-1-phenyl-propyl)-amide] | 5.29
CC[C@@H](NC(=O)c1cc(C(=O)Nc2c(C)noc2C)n2c1COCC2)c1ccccc1 [16hg, 3,4-Dihydro-1H-pyrrolo[2,1-c][1,4]oxazine-6,8-dicarboxylic acid 6-[(3,5-dimethyl-isoxazol-4-yl)-amide] 8-[((R)-1-phenyl-propyl)-amide]] | 6.22
CC[C@@H](NC(=O)c1cc(C(=O)NC(C)c2ncccn2)c2n1CCOC2)c1ccc(F)cc1Cl (stereo partly drawn) [16kp, 3,4-Dihydro-1H-pyrrolo[2,1-c][1,4]oxazine-6,8-dicarboxylic acid 6-{[(R)-1-(2-chloro-4-fluoro-phenyl)-propyl]-amide} 8-[(1-pyrimidin-2-yl-ethyl)-amide]] | 6.55
6-((S)-2-Methyl-pyrrolidine-1-carbonyl)-3(4-dihydro-1H-pyrrolo[2,1-c][1,4]oxazine-8-carboxylic acid [(R)-1-(2,2-difluoro-benzo[1,3]dioxol-5-yl)-propyl]-amide [16bz] | 6.70
CC[C@@H](NC(=O)c1cc(C(=O)N(C)CC2CC2)n2c1COCC2)c1ccccc1 [16he, 3,4-Dihydro-1H-pyrrolo[2,1-c][1,4]oxazine-6,8-dicarboxylic acid 6-(cyclopropylmethyl-methyl-amide) 8-[((R)-1-phenyl-propyl)-amide]] | 6.31
C[C@H]1CCCN1C(=O)c1cc(C(=O)N[C@H]2CCc3nc(C(F)(F)F)ccc32)c2n1CCOC2 (racemic) [16cu, 6-((S)-2-Methyl-pyrrolidine-1-carbonyl)-3,4-dihydro-1H-pyrrolo[2,1-c][1,4]oxazine-8-carboxylic acid ((S)-2-trifluoromethyl-6,7-dihydro-5H-[1]pyrindin-5-yl)-amide] | 5.05
CCC(NC(=O)c1cc(C(=O)N[C@H](CC)c2ccccc2)c2n1CCOC2)c1ccc(C)nc1 (stereo partly drawn) [16ho, 3,4-Dihydro-1H-pyrrolo[2,1-c][1,4]oxazine-6,8-dicarboxylic acid 6-{[1-(6-methyl-pyridin-3-yl)-propyl]-amide} 8-[((R)-1-phenyl-propyl)-amide]] | 6.14
CC[C@@H](NC(=O)c1cc(C(=O)N2CCC[C@@H]2C)n2c1COCC2)c1cnc(C(F)(F)F)cc1Cl [16br, 6-((S)-2-Methyl-pyrrolidine-1-carbonyl)-3,4-dihydro-1H-pyrrolo[2,1-c][1,4]oxazine-8-carboxylic acid [(R)-1-(4-chloro-6-trifluoromethyl-pyridin-3-yl)-propyl]-amide] | 6.06
CC[C@@H](NC(=O)c1cc(C(=O)N[C@H](CC)c2cccc(S(C)(=O)=O)c2)n2c1COCC2)c1ccccc1 [16jh, 3,4-Dihydro-1H-pyrrolo[2,1-c][1,4]oxazine-6,8-dicarboxylic acid 6-{[(R)-1-(3-methanesulfonyl-phenyl)-propyl]-amide}-8-[((R)-1-phenyl-propyl)-amide]] | 6.11
CC(NC(=O)c1cc(C(=O)N[C@@H](c2ccc(F)cc2)C(C)C)n2c1COCC2)c1cnccn1 (single isomer, unassigned) [16lp] | 6.26
CC[C@@H](NC(=O)c1cc(C(=O)N[C@H](c2ccc(F)cc2)C2CC2)n2c1COCC2)c1ccccc1 [16ik, 3,4-Dihydro-1H-pyrrolo[2,1-c][1,4]oxazine-6,8-dicarboxylic acid 6-{[(S)-cyclopropyl-(4-fluoro-phenyl)-methyl]-amide} 8-[((R)-1-phenyl-propyl)-amide]] | 6.15
CC[C@@H](NC(=O)c1cc(C(=O)N[C@H](C)c2ccc(F)cc2)n2c1COCC2)c1ccc(C#N)cc1 [16ec, 3,4-Dihydro-1H-pyrrolo[2,1][1,4]oxazine-6,8-dicarboxylic acid 8-{[(R)-1-(4-cyano-phenyl)-propyl]-amide} 6-{[(R)-1-(4-fluoro-phenyl)-ethyl]-amide}] | 6.22
CC[C@@H](NC(=O)c1cc(C(=O)N2CCCC2)n2c1COCC2)c1ccc(F)cc1Cl [16db, 6-(Pyrrolidine-1-carbonyl)-3,4-dihydro-1H-pyrrolo[2,1-c][1,4]oxazine-8-carboxylic acid [(R)-1-(2-chloro-4-fluoro-phenyl)-propyl]-amide] | 7.05
C[C@@H](NC(=O)c1cc(C(=O)N[C@H](C)c2ccc(F)cc2)n2c1COCC2)c1ccccc1 [16dn, 3,4-Dihydro-1H-pyrrolo[2,1-c][1,4]oxazine-6,8-dicarboxylic acid 6-{[(R)-1-(4-fluoro-phenyl)-ethyl]-amide} 8-[((R)-1-phenyl-ethyl)-amide]] | 7.30
CC[C@@H](NC(=O)c1cc(C(=O)N(C)Cc2ccc(F)cc2)n2c1CCCC2)c1ccccc1 [16mu, 5,6,7,8-Tetrahydro-indolizine-1,3-dicarboxylic acid 3-[(4-fluoro-benzyl)-methyl-amide] 1-[((R)-1-phenyl-propyl)-amide]] | 7.12
CC[C@@H](NC(=O)c1cc(C(=O)N2CCC[C@@H]2C)c2n1CCOC2)c1ccccc1C(F)(F)F [16ni, 8-((S)-2-Methyl-pyrrolidine-1-carbonyl)-3,4-dihydro-1H-pyrrolo[2,1-c][1,4]oxazine-6-carboxylic acid [(R)-1-(2-trifluoromethyl-phenyl)-propyl]-amide] | 6.54
CC[C@@H](NC(=O)c1cc(C(=O)N2CCC[C@@H]2C)n2c1COCC2)c1ccc(C(F)(F)F)cc1F [16ct, 6-((S)-2-Methyl-pyrrolidine-1-carbonyl)-3,4-dihydro-1H-pyrrolo[2,1-c][1,4]oxazine-8-carboxylic acid [(R)-1-(2-fluoro-4-trifluoromethyl-phenyl)-propyl]-amide] | 6.68
CC[C@@H](NC(=O)c1cc(C(=O)NCc2ccccc2S(C)(=O)=O)n2c1COCC2)c1ccccc1 [16gx, 3,4-Dihydro-1H-pyrrolo[2,1-c][1,4]oxazine-6,8-dicarboxylic acid 6-(2-methanesulfonyl-benzylamide) 8-[((R)-1-phenyl-propyl)-amide]] | 6.37
CC[C@@H](NC(=O)c1cc(C(=O)N2CCCC2(C)C)n2c1COCC2)c1ccccc1 [16fb, 6-(2,2-Dimethyl-pyrrolidine-1-carbonyl)-3,4-dihydro-1H-pyrrolo[2,1-c][1,4]oxazine-8-carboxylic acid ((R)-1-phenyl-propyl)-amide] | 6.89
CC[C@@H](NC(=O)c1cc(C(=O)N[C@H](CC)c2cccc(NS(C)(=O)=O)c2)n2c1COCC2)c1ccccc1 [16ri, 3,4-Dihydro-1H-pyrrolo[2,1-c][1,4]oxazine-6,8-dicarboxylic acid 6-{[(R)-1-(3-methanesulfonylamino-phenyl)-propyl]-amide} 8-[((R)-1-phenyl-propyl)-amide]] | 5.37
CC[C@@H](NC(=O)c1cc(C(=O)N2CCC[C@@H]2C)n2c1COCC2)c1ccc(Cl)c(Cl)c1 [16ci, 6-((S)-Methyl-pyrrolidine-1-carbonyl)-3,4-dihydro-1H-pyrrolo[2,1-c][1,4]oxazine-8-carboxylic acid [(R)-1-(3,4-dichloro-phenyl)-propyl]-amide] | 7.52
CC[C@@H](NC(=O)c1cc(C(=O)N2CCC[C@@H]2C)n2c1COCC2)c1cccs1 [16rc, 6-((S)-2-Methyl-pyrrolidine-1-carbonyl)-3,4-dihydro-1H-pyrrolo[2,1-c][1,4]oxazine-8-carboxylic acid ((R)-1-thiophen-2-yl-propyl)amide] | 6.82
